In patent US7473699B2, “3-cyclyl-5-(nitrogen-containing 5-membered ring)methyl-oxazolidinone derivatives and their use as antibacterial agents” (AstraZeneca AB, priority 2002, dated 2009):
pKi: −log10 of the molar value. In brackets after ≈: the same amount, converted by molar mass. Read-outs that look alike come from different tables or passages of the source.

Legend:
[1] = tested on: Staphylococcus aureus MSQS; assay: MIC, agar-dilution, Staphylococcus aureus MSQS; assay type: cell-based; settings: Staphylococcus aureus MSQS (methicillin sensitive and quinolone sensitive)
Protocol: (§1) The following results were obtained on a standard in-vitro test system. The activity is described in terms of the minimum inhibitory concentration (MIC) determined by the agar-dilution technique with an inoculum size of 10^4 CFU/spot. Typically, compounds are active in the range 0.01 to 256 μg/ml.
(§2) Staphylococci were tested on agar, using an inoculum of 10^4 CFU/spot and an incubation temperature of 37° C. for 24 hours—standard test conditions for the expression of methicillin resistance.

[2] = tested on: Staphylococcus aureus MRQR; assay: MIC, agar-dilution, Staphylococcus aureus MRQR; assay type: cell-based; settings: Staphylococcus aureus MRQR (methicillin resistant and quinolone resistant)
Protocol: as §1, §2

Streptococcus pneumoniae = assay: MIC, agar-dilution, Streptococcus pneumoniae; assay type: cell-based
Protocol: as §1
(§3) Streptococci and enterococci were tested on agar supplemented with 5% defibrinated horse blood, an inoculum of 10^4 CFU/spot and an incubation temperature of 37° C. in an atmosphere of 5% carbon dioxide for 48 hours—blood is required for the growth of some of the test organisms. Fastidious Gram negative organisms were tested in Mueller-Hinton broth, supplemented with hemin and NAD, grown aerobically for 24 hours at 37° C., and with an innoculum of 5×10^4 CFU/well.

Streptococcus pyogenes = assay: MIC, agar-dilution, Streptococcus pyogenes; assay type: cell-based
Protocol: as §1, §3

Haemophilus influenzae = assay: MIC, fastidious Gram negative organisms in Mueller-Hinton broth, Haemophilus influenzae; assay type: cell-based
Protocol: as §1, §3

Moraxella catarrhalis = assay: MIC, fastidious Gram negative organisms in Mueller-Hinton broth, Moraxella catarrhalis; assay type: cell-based
Protocol: as §1, §3

MAO-A = target: T1, MAO-A (Homo sapiens, UniProt P21397); assay: MAO-A standard in-vitro assay, human liver enzyme expressed in yeast; assay type: biochemical
T1 construct: made in house; host or cells: yeast
T1 sequence (P21397 1-527): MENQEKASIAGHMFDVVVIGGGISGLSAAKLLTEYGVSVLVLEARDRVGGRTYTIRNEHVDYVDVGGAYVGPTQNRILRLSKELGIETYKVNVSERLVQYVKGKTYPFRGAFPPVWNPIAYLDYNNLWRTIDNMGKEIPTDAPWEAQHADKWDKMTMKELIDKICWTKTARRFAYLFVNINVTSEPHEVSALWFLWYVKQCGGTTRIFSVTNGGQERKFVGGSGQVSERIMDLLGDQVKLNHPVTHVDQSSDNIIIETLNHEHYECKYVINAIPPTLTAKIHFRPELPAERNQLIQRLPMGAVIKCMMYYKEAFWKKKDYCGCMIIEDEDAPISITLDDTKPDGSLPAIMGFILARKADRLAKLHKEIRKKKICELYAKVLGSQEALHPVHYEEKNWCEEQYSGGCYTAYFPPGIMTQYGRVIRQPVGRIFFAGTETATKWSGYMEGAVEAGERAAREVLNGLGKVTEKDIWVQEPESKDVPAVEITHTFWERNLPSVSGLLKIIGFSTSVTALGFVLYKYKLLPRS
Protocol: The activity of the compounds of the invention against MAO-A was tested using a standard in-vitro assay based on human liver enzyme expressed in yeast as described in Biochem. Biophys. Res. Commun. 1991, 181, 1084-1088. Ki values were determined using serial two-fold dilutions from […] to 0.04 μM.

[3] = first line (strain not given), read-out: MIC

Compound	MIC [1] [µg/mL]	MIC [2] [µg/mL]	MIC (Streptococcus pneumoniae; [3]) [µg/mL]	MIC (Streptococcus pneumoniae; second line (strain not given)) [µg/mL]	MIC (Streptococcus pyogenes) [µg/mL]	MIC (Haemophilus influenzae) [µg/mL]	MIC (Moraxella catarrhalis) [µg/mL]	pKi (MAO-A)
Cc1cn(C[C@H]2CN(c3ccc(C4=CC[S+]([O-])CC4)c(F)c3)C(=O)O2)nn1 (mixture of isomers) [Example 1, (5R)-3-[4-(1(R,S)-Oxo-3,6-dihydro-2H-thiopyran-4-yl)-3-fluorophenyl]-5-[(4-methyl)-1,2,3-triazol-1-ylmethyl]oxazolidin-2-one]	2	4	0.5	0.5	1	2	2	4.80
O=C1O[C@@H](Cn2ccnn2)CN1c1ccc(C2=CC[S+]([O-])CC2)c(F)c1 (some centres unmarked) [Reference Example 1]	2 (≈ 5.31 µM)	2 (≈ 5.31 µM)	1 (≈ 2.66 µM)	1 (≈ 2.66 µM)	1 (≈ 2.66 µM)	4 (≈ 10.6 µM)	2 (≈ 5.31 µM)	5.44
CC(=O)NC[C@H]1CN(c2ccc(C3=CC[S+]([O-])CC3)c(F)c2)C(=O)O1 (some centres unmarked) [Reference Example 2]								6.30
